Test systems include Malme-3M; SNB-19; RPMI-8226; RXF 393; M14; OVCAR-5; HOP-62; U-251; HOP-92; SN12C; HCT-116; HCT-15; OVCAR-3; NCI-H460; LOX IMVI; SNB-75; K562; SK-OV-3; SK-MEL-2; MOLT-4.
Common to all, as to test: NCI tumour cell line growth inhibition, 48 h

Structures are written as SMILES.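 Test compounds were applied to cells in 96-well plates for 48 hours at 5 doses. GI50 is the concentration that inhibits growth by half.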 The source made the active and inactive calls. Cut-off read from the data, not from the text of the source: active = GI50 up to about 1.1 µM and inactive = higher.

We go through 4 molecules from ChEMBL document CHEMBL1201862, “PubChem BioAssay data set” (2004).

For the molecule `Oc1ccc(CCNCc2cc3c(cc2Br)OCO3)cc1`, the GI50 in the assay on Malme-3M was 62.8 µM (inactive); in the assay on SNB-19, > 100 µM (inactive); with RPMI-8226, 27.9 µM (inactive); in the assay with RXF 393, 69.5 µM (inactive); in the assay on M14, 38.1 µM (inactive); in the assay on OVCAR-5 it was > 100 µM (inactive). Further, the GI50 with HOP-62 is 79.3 µM (inactive); in the assay with U-251, 77.8 µM (inactive); with HOP-92, > 100 µM (inactive); in the assay with SN12C it was 66.8 µM (inactive); with HCT-116, 61.7 µM (inactive); in the assay on HCT-15 it was above 100 µM. The GI50 is 30.1 µM (inactive) with OVCAR-3; 57.8 µM (inactive) with NCI-H460; 88.9 µM (inactive) in the assay on LOX IMVI; 18.4 µM (inactive) with SNB-75; 34.8 µM (inactive) in the assay with K562; 51.8 µM (inactive) in the assay with SK-OV-3. For the same molecule, the GI50 in the assay with SK-MEL-2 is 21.7 µM (inactive); in the assay on MOLT-4, 32.6 µM (inactive).
As to `COC(=O)[C@H](Cc1ccccc1)NC(=O)c1ccc(CNC(=O)/C=C/c2ccc(OCc3ccccc3)cc2)cc1`, the GI50 is 3.5 µM (inactive) in the assay with Malme-3M; 15.7 µM (inactive) in the assay with SNB-19; 39 µM (inactive) in the assay with RPMI-8226; 6.34 µM (inactive) with RXF 393; 2.44 µM (inactive) in the assay on M14; 38.2 µM (inactive) in the assay on OVCAR-5. Moreover, the GI50 with HOP-62 was 12.6 µM (inactive); with U-251, 18.1 µM (inactive); with HOP-92, 2.45 µM (inactive); with SN12C it was 13.9 µM (inactive); in the assay with HCT-116, 25.2 µM (inactive); with HCT-15 it was 40.1 µM. Further, the GI50 is 10.7 µM (inactive) in the assay on OVCAR-3; 19.5 µM (inactive) with NCI-H460; 17.1 µM (inactive) with LOX IMVI; 13.8 µM (inactive) in the assay with SNB-75; 12 µM (inactive) in the assay on K562; 24.4 µM (inactive) in the assay on SK-OV-3. Further, the GI50 is 2.55 µM (inactive) in the assay on SK-MEL-2 and 6.17 µM (inactive) in the assay on MOLT-4.
In the case of `COC(=O)c1ccc(C)cc1CC1Cc2c(C)cccc2C1=O` (stereo not given), the GI50 was 10.7 µM (inactive) in the assay with Malme-3M; 9.89 µM (inactive) in the assay on SNB-19; 4.65 µM (inactive) in the assay with RPMI-8226; 10.9 µM (inactive) in the assay with RXF 393; 9.27 µM (inactive) with M14; 34.4 µM (inactive) in the assay with OVCAR-5. Also, the GI50 was 13.6 µM (inactive) in the assay on HOP-62; 5.96 µM (inactive) in the assay with U-251; 16.9 µM (inactive) in the assay on HOP-92; 6.62 µM (inactive) in the assay on SN12C; 3.58 µM (inactive) in the assay with HCT-116; 3.05 µM in the assay on HCT-15. Also, the GI50 in the assay with OVCAR-3 was 3.96 µM (inactive); in the assay with NCI-H460, 17.8 µM (inactive); in the assay on LOX IMVI, 8.09 µM (inactive); with SNB-75, 4.16 µM (inactive); in the assay with K562, 2.94 µM (inactive); in the assay on SK-OV-3, 6.21 µM (inactive). Moreover, the GI50 is 5.9 µM (inactive) with SK-MEL-2 and 5.56 µM (inactive) in the assay with MOLT-4.
In the case of `CO/N=C(\C(=O)[N-]n1cn[n+](CC(=O)OC(C)(C)C)c1)c1csc(NC(c2ccccc2)(c2ccccc2)c2ccccc2)n1`, the GI50 in the assay with Malme-3M, with SNB-19, with RPMI-8226, in the assay with RXF 393, in the assay on M14 and in the assay on OVCAR-5 was > 10 µM (inactive) each time. For the same molecule, the GI50 was > 10 µM (inactive) in the assay with HOP-62; > 10 µM (inactive) with U-251; > 10 µM (inactive) in the assay with HOP-92; > 10 µM (inactive) in the assay on SN12C; > 10 µM (inactive) in the assay on HCT-116; above 10 µM in the assay on HCT-15. The GI50 with OVCAR-3, in the assay on NCI-H460, in the assay on LOX IMVI, in the assay on SNB-75, in the assay with K562 and in the assay on SK-OV-3 was > 10 µM (inactive) each time. The GI50 in the assay on SK-MEL-2 and in the assay on MOLT-4 was > 10 µM (inactive) each time.
